# Where two headings read alike, the source gives them in different places.
# Experiments:
# [1] = test system: J7-T3-1.6; test: cells; format: cell-based, mouse; conditions: for Fold resistance (ratio of IC50 J7-T3-1.6 to J774.2): after 72 h
# Method: (§1) The drug-sensitive mouse macrophage-like cell line, J774.2, and its Taxol-resistant cell line, J7-T3-1.6, were maintained as previously described. […] Drug-sensitive and vinblastine-resistant human ovarian carcinoma cell lines, SKOV3 and SKVLB, were obtained from Dr. V. Ling, and were maintained as previously described. Both J7-T3-1.6 and SKVLB cells overexpress P-glycoprotein. SKVLB cells were grown in the presence of 1 μM vinblastine. The Taxol-resistant human non-small-cell lung carcinoma cell line, A549-T12, was derived from the drug-sensitive A549 cell line; both cell lines were maintained as previously described.
# (§2) For the A549 cell lines, cells were seeded at a density of 1×10^4 cells/mL (A549) or 3×10^4 cells/mL (A549-T12), in triplicate, 6-well plates, and allowed to attach for 24 h. […] The SKOV3 and SKVLB cell lines were assayed in a similar manner. Cells were seeded in triplicate, at a density of 6×10^3 cells/mL (SKOV3) or 12×10^3 cells/mL (SKVLB), in 6-well plates, and incubated with a drug for 6 days. […] J774.2 and J7-T3-1.6 cells were plated at a density of 2×10^4 cells/well, in 96-well plates, and allowed to attach overnight. Serial dilutions of each drug were performed, and the cells were incubated for 72 h. The IC50 was determined using the CellTiter 96™ AQueous nonradioactive cell proliferation assay (Promega, Madison, Wis.), which correlates with the number of live cells. Different methods for determining IC50 values were used, depending on the most accurate method for each particular set of cell lines.
# [2] = test system: J774.2; test: cells; format: cell-based, mouse; conditions: Mus musculus; J774.2, 72 h, mean ± SE; read-out: IC50 (drug concentration that inhibits cell division by 50%)
# Method: as §1, §2
# [3] = test system: A549-T12; test: cells; format: cell-based, human; conditions: for Fold resistance (ratio of IC50 A549-T12 to A549): 72 h
# Method: as §1, §2
# [4] = test system: A549; test: cells; format: cell-based, human; conditions: A549, 72 h, mean ± SE
# Method: as §1, §2
# [5] = test system: SKOV3; test: cells; format: cell-based, human; conditions: SKOV3, 6 days, mean ± SE
# Method: as §1, §2
# [6] = test system: SKVLB; test: cells; format: cell-based, human; conditions: for Fold resistance (ratio of IC50, SKVLB and SKOV3): after 6 days
# Method: as §1, §2
# [7] = test system: A549-T12 cells; test: Drug combination assay (colorimetric proliferation assay), Taxol titrated with test drug; format: cell-based, human; conditions: 72 h
# Method: For the drug combination assay, the cells were analyzed after 72 h using a cell proliferation assay, as described below. A: cytotoxicity curves of A549-T12 cells in the absence of Taxol or in the presence of Taxol (in various concentrations), in combination with a range of discodermolide concentrations; B-D: cytotoxicity curves of A549-T12 cells in the absence or presence of 2 nM Taxol, in combination with eleutherobin or the epothilones. —⬭—: no Taxol; ---⬬----: 2 nM Taxol.
# For the drug combination assay, A549-T12 cells were seeded in triplicate, at a density of 4×10^4 cells/mL, in 96-well plates, in the absence of Taxol or in the presence of various concentrations of Taxol, in combination with serial dilutions of each test drug. After a 72-h incubation, the plates were assayed using the colorimetric proliferation assay. In order to sustain the growth of A549-T12 cells in the absence of Taxol, cells were seeded at the higher densities described above.
# [8] = test system: A549-T12 cells; format: cell-based, human; conditions: 48 h
# Method: A549-T12 cells were grown on cover slips and treated with the different compounds for 48 h. Cells were then permeabilized, fixed, and incubated with an α-tubulin antibody, as described below.
# A549-T12 cells, which were grown to subconfluency on glass cover slips in the absence of drug or in the presence of different drugs at varying concentrations (FIG. 4), were prepared for immunofluorescence microscopy as previously described, with the following modifications: (a) nonspecific binding was blocked using 10% normal goat serum in PBS for 30 min at 37° C.; (b) cells were incubated with a monoclonal antibody to α-tubulin (Sigma; 1:100 dilution; 5% normal goat serum in PBS), followed by a Cy3-conjugated anti-mouse IgG secondary antibody (Amersham, Arlington Heights, Ill.; 1:1000 dilution); and (c) slides were analyzed using the Zeiss Axioskop microscope (rhodamine filter) at 63× magnification.
# [9] = test system: A549-T12 cells; format: cell-based, human
# Method: Cells were incubated with the different agents for 48 h, fixed, stained with propidium iodide, and analyzed by flow cytometry, as described below.
# For the drug substitution experiments, A549-T12 cells were seeded at a density of 3×10^4 cells/mL in 75-cm^2 flasks, and treated with various drugs at the indicated concentrations (FIG. 5). After 48 h, both adherent and nonadherent cells were harvested, fixed in 70% ethanol for at least 20 min, permeabilized with 0.1% Triton X-100 in PBS for 3 min, and stained for 30 min at 37° C. with 10 μg/mL of propidium iodide (Sigma) in a PBS solution containing 1 μg/mL of RNase A (Boehringer Mannheim, Indianapolis, Ind.). Cell-cycle analysis was performed using the Becton Dickinson FACScan and the CellQuest program. […] The cells then were prepared as described above.
# [10] = test system: P-glycoprotein; test: Steady-state accumulation of [3H]Taxol; format: cell-based; conditions: Taxol-resistant murine cell line; data not shown
# [11] = test system: microtubules; test: In vitro microtubule polymerization assay; format: biochemical; conditions: in the absence of GTP
# [12] = literature [13], [16]; discodermolide value predicted; cited from earlier work
compound,measurement,setting,value
"C=C/C=C\[C@H](C)[C@H](OC(N)=O)[C@@H](C)[C@H](O)[C@@H](C)C/C(C)=C\[C@H](C)[C@@H](O)[C@@H](C)/C=C\[C@@H](O)C[C@@H]1OC(=O)[C@H](C)[C@@H](O)[C@H]1C [Disco, discodermolide]",IC50,"[1]; Mus musculus, J7-T3-1.6, 72 h, mean ± SE, read-out: IC50 (drug concentration that inhibits cell division by 50%)",1050 nM
same,Fold resistance (ratio of IC50 J7-T3-1.6 to J774.2),[1],29.2 fold
same,Fold resistance (ratio of IC50 J7-T3-1.6 to J774.2),[1]; listed as discodermolide,low resistance
same,IC50,[2],36 ± 5.5 nM
same,Fold resistance (ratio of IC50 A549-T12 to A549),[3],0.8 fold
same,Fold resistance (ratio of IC50 A549-T12 to A549),[3]; listed as discodermolide,no cross-resistance
same,IC50,"[3]; Homo sapiens, A549-T12, 72 h, cells maintained in 2 nM Taxol, mean ± SE, read-out: IC50 (drug concentration that inhibits cell division by 50%)",6.5 ± 2.4 nM
same,IC50 (drug concentration that inhibits cell division by 50%),[4],comparable activities
same,IC50,"[4]; Homo sapiens, read-out: IC50 (drug concentration that inhibits cell division by 50%)",8.1 ± 0.14 nM
same,IC50,"[5]; Homo sapiens, SK-OV-3, 144 h, read-out: IC50 (drug concentration that inhibits cell division by 50%)",9.7 ± 0.3 nM
same,IC50 (drug concentration that inhibits cell division by 50%),[5],decreased but similar responses
same,IC50,"[6]; Homo sapiens, Ovarian carcinoma cell, 144 h, SKVLB, 6 days, mean ± SE, read-out: IC50 (drug concentration that inhibits cell division by 50%)",575 ± 233 nM
same,"Fold resistance (ratio of IC50, SKVLB and SKOV3)",[6],59.3 fold
same,"Fold resistance (ratio of IC50, SKVLB and SKOV3)",[6]; listed as discodermolide,low-level cross-resistance
same,Taxol concentration at which the potency of discodermolide was maximal,[7]; Taxol titrated with a range of discodermolide concentrations,2 nM
same,Loss of sensitivity of A549-T12 cells to the drug in the absence of 2 nM Taxol,[7]; absence vs presence of 2 nM Taxol,20 fold
same,Concentration at which microtubules became arranged in bundle-like formations at the periphery of the cell,[8],≥ 12 nM
same,Microtubule cytoskeleton / ability to substitute for Taxol,[8]; concentrations as in FIG. 4,Neither discodermolide nor vinblastine was able to substitute for Taxol
same,Cell-cycle profile,"[9]; 48 h, 2 nM Taxol, discodermolide 2 or 6 nM, other drugs as in FIG. 5",did not prevent the development of a G2-M-phase block
same,Reversal of the G2-M-phase block induced by Taxol removal,"[9]; 48 h without Taxol, then 48 h with drug, discodermolide 0.001-24.0 nM, data not shown",irreversible
same,Cell-cycle profile,[9]; discodermolide 0.001-1.0 nM,G2-M-phase block
same,Cell-cycle profile,[9]; discodermolide 12-24 nM,substantial increase in the hypodiploid population
same,Substrate for P-glycoprotein,[10],not substrates for P-glycoprotein
same,Assembly of microtubules,[11],enhanced the assembly of stable microtubules
same,Solubility relative to Taxol,[12],100 times more soluble than Taxol
